Values of other authors as cited in patent US20090143313A1 (priority 2004, published 2009).

Assays:
tuberculosis = conditions: human, in vivo
[1] = tested on: 5-FU-immune-suppressed animals; conditions: in vivo
[2] = tested on: immunization with sheep red blood cells; conditions: in vivo

N[C@H](CCC(=O)N[C@@H](Cc1c[nH]c2ccccc12)C(=O)O)C(=O)O [SCV-07, γ-D-glutamyl-L-tryptophan]
Cavity healing and symptoms of tuberculosis (tuberculosis): positive effect | Incidence of mycobacteria-negative sputum cultures (tuberculosis): increased | Immunostimulatory effect [1]: strong immunostimulatory effect | Expression of Thy-1.2 on bone marrow cells (bone marrow cells): stimulates | Immunostimulatory effect [2]: strong immunostimulatory effect | Con-A-induced interleukin-2 (IL-2) production and IL-2 receptor expression by spleen lymphocytes (spleen lymphocytes): increases
